Results on 4 molecules are retold here after patent publication US4395408A, “Steroids” (Roussel Uclaf, priority 1980, dated 1983).

For this data set, the system named is mice. The experiment in a line: Acute Toxicity (lethal dose LD0). The format is in vivo. The following applies: for DL0 I.P. (maximum dose which did not cause any mortality after 8 days): intraperitoneal.

Molecules are shown by their SMILES. Structures can show the parent of a compound that is named as a salt.

In the case of `C/C=C1/CC[C@H]2[C@@H]3CC[C@H]4C[C@H](N)CC[C@]4(C)[C@H]3CC[C@]12C` [Example 1, (Z) 3α-amino-Δ^17(20) -5α-pregnene hydrochloride], the “DL0 I.P. (maximum dose which did not cause any mortality after 8 days)” value worked out at 100 mg/kg and the “DL0 oral (maximum dose which did not cause any mortality after 8 days)” value was at least 400 mg/kg.

For the molecule `C[C@H](O)[C@@]1(O)CC[C@H]2[C@@H]3CC[C@H]4C[C@H](N)CC[C@]4(C)[C@H]3CC[C@@]21C` [Example 3, (20S)3α-amino-5α-pregnane-17α,20-diol hydrochloride], the “DL0 I.P. (maximum dose which did not cause any mortality after 8 days)” value turned out to be 60 mg/kg and the “DL0 oral (maximum dose which did not cause any mortality after 8 days)” value is 200 mg/kg.

As for `C[C@H](O)[C@H]1CC[C@H]2[C@@H]3CC[C@H]4C[C@@H](N)CC[C@@H]4[C@H]3CC[C@]12C` [Example 5, (20S)3β-amino-19-nor-5α-pregnane-20-ol hydrochloride], the “DL0 I.P. (maximum dose which did not cause any mortality after 8 days)” value stood at 100 mg/kg and the “DL0 oral (maximum dose which did not cause any mortality after 8 days)” value is given as 400 mg/kg.

Turning to `CC(=O)[C@@]1(O)CC[C@H]2[C@@H]3CC[C@H]4C[C@H](N)CC[C@]4(C)[C@H]3CC[C@@]21C` [Example 6, 3α-amino-5α-pregnane-17α-ol-20-one hydrochloride], the “DL0 I.P. (maximum dose which did not cause any mortality after 8 days)” value was found to be 60 mg/kg and the “DL0 oral (maximum dose which did not cause any mortality after 8 days)” value is listed as at least 400 mg/kg.
